Assay [1] concerns ASIC3 currents in CHO cells co-expressing ASIC3 and PAR2. The experiment in a line: Whole-cell patch clamp of proton-gated currents (I pH 6.6) in CHO cells co-expressing ASIC3 and PAR2. It counts as cell-based, Chinese hamster. The protocol:
(§1) ASIC3, ASIC1a, ASIC1b, ASIC2b, and PAR2 complementary DNAs (cDNAs) were used for heterologous expression in CHO cells as described previously (Wang et al., 2013). In brief, CHO cells were cultured at 37 °C in a humidified atmosphere of 5% CO2 and […] and passaged twice a week. Transient transfection of CHO cells was performed using HilyMax liposome transfection reagent (Dojindo Laboratories). CHO cells were maintained in F-12 Nutrient Mixture (added 1.176 g of NaHCO3/L medium) supplemented with 10% fetal bovine serum and 1% gluta-MAXTM-1 (100×; Invitrogen). When ASIC3 and PAR2 cDNAs were co-transfected, the ratio was kept at 1:1. All plasmids used contained, in addition to the desired ASIC3 cDNA, the coding sequence for enhanced green fluorescent protein to aid identification of transfected cells. Electrophysiological measurements were performed 24–48 h after transfection.
(§2) Whole-cell patch clamp and voltage clamp recordings were carried out at room temperature (22–25 °C) using a MultiClamp-700B amplifier and Digidata-1440A A/D converter (Axon Instruments, CA, USA). Recording pipettes were pulled using a Sutter P-97 puller (Sutter Instruments, CA, USA). The micropipettes were filled with internal solution containing (mM) KCl 140, MgCl2 2.5, HEPES 10, EGTA 11, and ATP 5; its pH was adjusted to 7.2 with KOH, and osmolarity was adjusted to 310 mOsm/L with sucrose. Cells were bathed in an external solution containing (mM) NaCl 150, KCl 5, CaCl2 2.5, MgCl2 2, HEPES 10, D-glucose 10; its osmolarity was adjusted to 330 mOsm/L with sucrose and its pH to 7.4. The resistance of the recording pipette was in the range of 3–6 MΩ. A small patch of membrane underneath the tip of the pipette was aspirated to form a giga seal, and then, a negative pressure was applied to rupture it, thus establishing a whole-cell configuration. The series resistance was compensated for by 70–80%. The adjustment of capacitance compensation was also done before recording the membrane currents. The membrane voltage was maintained at −60 mV in all voltage clamp experiments unless otherwise specified. Current clamp recordings were obtained by switching to current clamp mode after a stable whole-cell configuration was formed in voltage clamp mode. Only cells with a stable resting membrane potential (more negative than −50 mV) were used in the study. Signals were sampled at 10 to 50 kHz and filtered at 2 to 10 kHz, and the data were stored in compatible PC computer for off-online analysis using the pCLAMP 10 acquisition software (Axon Instruments, CA, USA).
Drugs purchased from Sigma and used in the experiments include hydrochloric acid, 2-furoyl-LIGRLO-NH2 (a PAR2-activating peptide (PAR2-AP)), trypsin, FSLLRY-NH2, APETx2, and capsazepine. Different pH values were configured with hydrochloric acid and external solution. All drugs were dissolved daily in the external solution just before use and held in a linear array of fused silica tubes (o.d./i.d. = 500 μm/200 μm) connected to a series of independent reservoirs. The application pipette tips were positioned ∼30 μm away from the recorded neurons. The application of each drug was driven by gravity and controlled by the corresponding valve, and rapid solution exchange could be achieved within about 100 ms by shifting the tubes horizontally with a PC-controlled micromanipulator. Cells were constantly bathed in normal external solution flowing from one tube connected to a larger reservoir between drug applications. In some experiments where GDP-β-S (Sigma), U-73122(Sigma), and GF109203X (RBI) were applied for intracellular dialysis through recording patch pipettes, they were dissolved in the internal solution before use. To ensure that the cell interior was perfused with the dialysis drug, there was at least a 30-min interval between the establishment of whole-cell access and the current measurement. […]
A general note: Patch clamp records ionic current or voltage across a cell membrane.

In assay [2] the test system is ASIC3-like currents in rat DRG neurons. Description: Voltage clamp of proton-evoked ASIC3-like currents in acutely isolated rat DRG neurons. It counts as cell-based.
Excerpt: (§3) The experimental protocol was approved by the animal research ethics committee of Hubei University of Science and Technology (No. 2016–67). All procedures conformed to international guidelines on the ethical use of animals, and every effort was made to minimize the number of animals used and their sufferings. Five- to 6-week-old Sprague–Dawley male rats were anesthetized with 7% chloral hydrate and then decapitated. The DRGs were taken out and transferred immediately into Dulbecco’s modified Eagle’s medium (DMEM, Sigma) at pH 7.4. After the removal of the surrounding connective tissues, the DRGs were minced with fine spring scissors and the ganglion fragments were placed in a flask containing 5 ml of DMEM in which trypsin (type II-S, Sigma) 0.5 mg/ml, collagenase (type I-A, Sigma) 1.0 mg/ml, and DNase (type IV, Sigma) 0.1 mg/ml had been dissolved and incubated at 35 °C in a shaking water bath for 25–30 min. Soybean trypsin inhibitor (type II-S, Sigma) 1.25 mg/ml was then added to stop trypsin digestion. The incubating solution was then replaced by external solution. Dissociated neurons were placed into a 35-mm Petri dish and kept for at least 1 h in normal external solution before the start of electrophysiological experiments. After plating of the DRG neurons, the neurons were used for experiments within 24 h. The neurons selected for electrophysiological experiment were 15–35 μm in diameter.
as §2, with “The membrane voltage was maintained at −60 mV in all voltage clamp experiments unless otherwise specified. Current clamp recordings were obtained by switching to current clamp mode after a stable whole-cell configuration was formed in voltage clamp mode. Only cells with a stable resting membrane potential (more negative than −50 mV) were used in the study. Signals were sampled at 10 to 50 kHz and filtered at 2 to 10 kHz, and the data were stored in compatible PC computer for off-online analysis using the pCLAMP 10 acquisition software (Axon Instruments, CA, USA).” left out
(§4) Drugs purchased from Sigma and used in the experiments include hydrochloric acid, 2-furoyl-LIGRLO-NH2 (a PAR2-activating peptide (PAR2-AP)), trypsin, FSLLRY-NH2, APETx2, and capsazepine. […] The application pipette tips were positioned ∼30 μm away from the recorded neurons. […]

Assay [3] deals with rat DRG neurons. The experiment in a line: Current clamp of acidosis-evoked action potentials (spikes) in rat DRG neurons. In kind it is cell-based. The settings on record: APETx2 2 μM; pH 6.6 for 5 s; capsazepine 10 μM.
Excerpt: as §3, with “Dissociated neurons were placed into a 35-mm Petri dish and kept for at least 1 h in normal external solution before the start of electrophysiological experiments. After plating of the DRG neurons, the neurons were used for experiments within 24 h. The neurons selected for electrophysiological experiment were 15–35 μm in diameter.” left out
as §4

Assay [4] has as its system rats. Description: Nociceptive behavior (flinches) induced by intraplantar acetic acid in rats. In kind it is in vivo, rat. Particulars: n = 10. On the procedure:
Rats were placed in a 30 × 30 × 30 cm Plexiglas chamber and allowed to habituate for at least 30 min before nociceptive behavior experiments. A blind experiment was carried out. Separate groups of rats were coded and pretreated with 20 μl capsazepine (100 μM) together with vehicle and different dosages of PAR2-AP, FSLLRY-NH2, or APETx2 in the ipsilateral hind paw before injection of acetic acid. […] And nociceptive behavior (that is, number of flinches) was counted over a 5-min period starting immediately after the injection.
We finally ascertain whether PAR2-AP facilitates pain-related behaviors through interacting with ASIC3 in vivo. Acetic acid (0.6%) was injected into the right hind paws of rats and measured the number of flinches that the animals spent licking and/or lifting the injected paw. Intraplantar injection of acetic acid elicits an intense flinch/shaking response which mainly occurred during 0–5 min after injection of acetic acid. […] However, the low dose (1 μg) of PAR2-AP had no effect on the acidosis-induced nocifensive behaviors (Bonferroni’s post hoc test, P > 0.1, n = 10). In addition, the exacerbating effect of 10 μg PAR2-AP on acidosis-induced nocifensive behaviors was blocked by co-administration of 20 μg FSLLRY-NH2, a selective PAR2 antagonist (Bonferroni’s post hoc test, P < 0.01, compared with 10 μg PAR2-AP alone, n = 10; Fig. 6a).

In assay [5] the test system is ASIC3 currents in CHO cells expressing alone ASIC3, but not expressing PAR2. Description: Whole-cell patch clamp, CHO cells expressing ASIC3 alone (no PAR2). It counts as cell-based, Chinese hamster. Particulars: 10^−5 M; P > 0.1; n = 10. The protocol:
as §1
Whole-cell patch clamp and voltage clamp recordings were carried out at room temperature (22–25 °C) using a MultiClamp-700B amplifier and Digidata-1440A A/D converter (Axon Instruments, CA, USA). […]
as §4

For `CN(C)CCCn1cc(C2=C(c3c[nH]c4ccccc34)C(=O)NC2=O)c2ccccc21` [GF109203X], the “PAR2-AP-induced increase of I pH 6.6 with GF109203X in the pipette solution” value in assay [1] (GF109203X 2 μM intracellular dialysis, PAR2-AP 10^−5 M for 1 min, n = 10) was determined as 3.2 ± 6.0%.

`O=S(=O)(NCCNC/C=C/c1ccc(Br)cc1)c1cccc2cnccc12` [H-89]: the “PAR2-AP-induced increase of I pH 6.6 with H-89 in the pipette solution” value in assay [1] (H-89 10 μM intracellular dialysis, PAR2-AP 10^−5 M for 1 min, n = 10) was 15.3 ± 5.8%.

On to `COc1ccc2c(c1)CC[C@@H]1[C@@H]2CC[C@]2(C)[C@@H](NCCCCCCN3C(=O)C=CC3=O)CC[C@@H]12` [U-73122], for which the “PAR2-AP-induced increase of I pH 6.6 with U-73122 in the pipette solution” value in assay [1] (U-73122 10 μM intracellular dialysis, PAR2-AP 10^−5 M for 1 min, n = 10) was 6.9 ± 2.8%.

Turning to APETx2, in assay [1] (APETx2 500 nM), the “effect on peak ASIC current (I pH 6.6)” value is listed as “inhibited the peak ASIC current” and the “effect on sustained plateau current (I pH 6.6)” value is listed as “without affecting the sustained plateau”. In assay [2] (APETx2 2 μM, eight DRG neurons, capsazepine 10 μM), the “effect on proton-induced ASIC current (I pH 6.6) in DRG neurons” value is reported as “completely blocked”. In addition, the “effect on acidosis-evoked spikes” value in assay [3] is “completely blocked”. For the same molecule, in assay [4] (APETx2 20 μM, 20 μl intraplantar, P < 0.01), the “effect on acetic acid-induced nociceptive response” value is “potently blocked”. Moreover, the “effect on increased pain behavior induced by 10 μg PAR2-AP” value in assay [4] (APETx2 20 μM, 20 μl intraplantar, P < 0.01 vs PAR2-AP) was “potently inhibited”.

For FSLLRY-NH2, in assay [1] (10^−5 M), the “change of peak amplitude of I pH 6.6 after pretreatment with FSLLRY-NH2 alone” value was no more than 5%. The “PAR2-AP-induced increase of ASIC3 currents in cells pretreated with FSLLRY-NH2” value in assay [1] (PAR2-AP 10^−5 M + FSLLRY-NH2 10^−5 M, n = 10, P < 0.01 vs PAR2-AP alone) is listed as 7.3 ± 7.1%. Also, in assay [1] (trypsin 10^−5 M + FSLLRY-NH2 10^−5 M, n = 10), the “trypsin-induced increase of ASIC3 currents in cells pretreated with FSLLRY-NH2” value worked out at 8.4 ± 6.2%. The “effect of FSLLRY-NH2 on trypsin potentiation of ASIC currents in DRG neurons” value in assay [2] (FSLLRY-NH2 10^−5 M, trypsin 10^−5 M) is listed as “inhibited”. Also, in assay [2] (PAR2-AP 10^−5 M + FSLLRY-NH2 10^−5 M, capsazepine 10 μM, n = 9, P < 0.01 vs PAR2-AP alone), the “increase of peak amplitude of I pH 6.6 in DRG neurons when PAR2-AP co-treated with FSLLRY-NH2” value stood at 9.3 ± 44%. Further, the “effect on exacerbation of acidosis-induced nocifensive behaviors by 10 μg PAR2-AP” value in assay [4] (FSLLRY-NH2 20 μg co-administered, P < 0.01 vs 10 μg PAR2-AP alone) was “blocked”.

For the molecule “trypsin: protease, possible physiological ligand of PAR2; cleaves and activates PAR2”, in assay [1] (10^−5 M for 1 min, n = 10), the “increase of peak amplitude of I pH 6.6 after pretreatment with agonist alone” value is listed as 48.7 ± 8.3%. Also, in assay [5], the “effect on I pH 6.6 in ASIC3-transfected CHO cells without PAR2” value is listed as “Neither PAR2-AP nor trypsin had an effect”.

The values above are taken from article PMC5534107, “Sensitization of ASIC3 by proteinase-activated receptor 2 signaling contributes to acidosis-induced nociception” (Journal of Neuroinflammation, 2017).
